“Also recorded” adds a separate entry of the source.
Tests used:
[1] = tested on: wild-type Saccharomyces cerevisiae CEN.PK113-7D yeast strain; experiment: Chronological lifespan analysis in yeast (PI, outgrowth, spotting); type: cell-based
Method: Yeast strain was recovered from frozen glycerol stock at 30° C. on YPD agar medium. Yeast was left to propagate in SD medium overnight at 30° C. with shaking at 220 revolutions per minute (rpm). Cells propagated overnight were diluted to a starting optical density at 600 nm (OD600) of approximately 0.2 in fresh SD medium to begin the chronological lifespan (CLS) experiments.
CLS experiments were performed in 96-well plates with 200 μL yeast culture. Cellular inoculums were transferred into 96-well plates containing serially double-diluted concentrations (0 to 10 nM) of rapamycin. […] Cells were incubated at 30° C., and the growth was measured at different time points. The growth time point 72 hours was considered as Day 1 for the CLS assay. Cell survival was quantified at various age time points by three different approaches: (i) PI fluorescence-based method, (ii) outgrowth in YPD liquid medium, and (iii) spotting assay (FIG. 1).
Yeast cells (40 μL) from different age time points were transferred into a second 96-well plate (different to the 96-well plate in which the CLS analysis as outlined above was performed). Cells were washed and incubated in 100 μL 1×phosphate buffered saline (PBS) with propidium iodide (PI) (5 μg/mL) for 15 minutes in the dark. Positive and negative control samples were included for quantitative analysis. Positive control (cells boiled at 100° C. for 15 minutes) was PI-stained and processed in the same 96-well plate. Samples without PI-stained cells served as the negative control. After incubation, cells were washed and resuspended in 100 μL PBS. The fluorescence reading of the samples (excitation and emission wavelengths at 535 nm and 617 nm, respectively) and OD600 were measured with a microplate reader (BioTek, Winooski, Vermont, United States). The fluorescence intensity of each sample was normalized with OD600. The background fluorescence signal of the unstained negative sample was subtracted from the normalized fluorescence intensity of each sample. The obtained fluorescence intensity of the positive control (boiled dead cells) was considered 0% cell survival. Cell death was validated by allowing the boiled dead cells to grow in medium. Cell survival at different age time points of samples were calculated by normalizing the fluorescence intensity with positive control sample (boiled cells).
Yeast stationary culture (3 μL) of different age time points were transferred to a second 96-well plate, containing 200 μL YPD medium, and incubated for 24 hours at 30° C. Outgrowth (OD600) of aged cells was measured by the microplate reader. Quantification of cell survival for each age point was determined as relative to Day 1 (considered 100% cell survival). This quantification was performed by using the formula,
Yeast stationary culture (3 μL) of different age time points were spotted onto a YPD agar plate and incubated for 48 hours at 30° C. The outgrowth of aged cells on the YPD agar plate was photographed using the Bio-Rad GelDoc Imaging System (Bio-Rad, Hercules, California, United States).

[2] = tested on: IMR90 cells; experiment: CLS in human cells, PrestoBlue outgrowth assay (IMR90); type: cell-based
Method: Human embryonic kidney 293 (HEK293) cells (ATCC, Manassas, Virginia, United States of America), lung epithelial (A549) cells (ATCC, Manassas, Virginia, United States of America) and fibroblast (IMR90) cells (ATCC, Manassas, Virginia, United States of America) were cultured in the standard D10 medium, consisting of high-glucose DMEM (HyClone, Cytiva, Marlborough, Massachusetts, USA) supplemented with 10% Fetal Bovine Serum (FBS) (Gibco™, ThermoFisher Scientific, Waltham, Massachusetts, USA) and 1% Penicillin Streptomycin Solution (Gibco™, ThermoFisher Scientific, Waltham, Massachusetts, USA). All cells were cultured in a humidified incubator with 5% CO2 at 37° C.
The seeding, washing and trypsinization process was performed similarly to that for the crystal violet assay. 80,000 cells were seeded in a 96-well culture plate with or without compound treatment. […] After one day of growth in a 37° C. incubator with 5% CO2, the cell number was assessed with PrestoBlue™ Cell Viability Reagent (Invitrogen™, Waltham, Massachusetts, USA) according to the manufacturer's protocol. […] After incubation in a 37° C. incubator with 5% CO2 for 3 to 4 hours, reading was taken with a BioTek Synergy MX microplate reader (BioTek, Winooski, Vermont, United States) at excitation and emission wavelengths of 560 nm and 590 nm, respectively. […]

OC[C@H]1O[C@H](CO)[C@@H](O)[C@@H]1O [2,5-AM, 2,5-anhydro-D-mannitol]
effect on yeast CLS ([1]; 0 to 8 mM in SD medium, up to day 21): extended the CLS in a concentration-dependent manner; also recorded: extended the lifespan even at the late stage of chronological aging | survival of aged cells ([1]; 8 mM, Day 21, without compound less than 10%): approximately 65% | effect on yeast CLS ([1]; very low concentrations (2 mM)): increased CLS | more surviving cells compared to the untreated group ([2]; 2.5 mM): 59.05% | more viable cells compared to the untreated group ([2]; 5 mM): 59.89%
